Laboratory results: PubChem BioAssay AID248 (DTP/NCI, 2004)
“And” between values parts separate entries of the source, which are not always exact repeats. Equal values may be shown once. Inconclusive results and toxic doses are left out.

Test system: L1210 leukemia ip in BDF1 mice, survival T/C
Assay: NCI In Vivo Anticancer Drug Screen. Data for tumor model L1210 Leukemia (intraperitoneal) in B6D2F1 (BDF1) mice
Details: higher = longer survival
Summary of the method: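 Ratio derived from survival: compound-dosed mice over vehicle-dosed mice, all bearing a transplantable tumor.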

Nc1c(Cl)cc2c(c1Cl)Cc1c-2cc(Br)c(N)c1Br
T/C (endpoint: median survival time, dose: 5.0 mg/kg/injection, schedule: Q04DX003 (ip), vehicle: saline): 121 % of control | T/C (endpoint: median survival time, dose: 10.0 mg/kg/injection, schedule: Q04DX003 (ip), vehicle: saline): 153 % of control | T/C (endpoint: median survival time, dose: 20.0 mg/kg/injection, schedule: Q04DX003 (ip), vehicle: saline): 180 % of control | T/C (endpoint: median survival time, dose: 40.0 mg/kg/injection, schedule: Q04DX003 (ip), vehicle: saline): 223 % of control | T/C (endpoint: median survival time, dose: 50.0 mg/kg/injection, schedule: Q07DX003 (ip), vehicle: saline): 211 % of control | T/C (endpoint: median survival time, dose: 80.0 mg/kg/injection, schedule: Q04DX003 (ip), vehicle: saline): 223 % of control | T/C (endpoint: median survival time, dose: 100.0 mg/kg/injection, schedule: Q07DX003 (ip), vehicle: saline): 202 % of control | T/C (endpoint: median survival time, dose: 200.0 mg/kg/injection, schedule: Q07DX003 (ip), vehicle: saline): 54 % of control | T/C (endpoint: median survival time, dose: 400.0 mg/kg/injection, schedule: Q07DX003 (ip), vehicle: saline): 53 % of control

NOCCCCON
T/C (endpoint: mean survival time, dose: 25.0 mg/kg/injection, schedule: Q01DX009 (ip), vehicle: saline): 98 % of control and 103 % of control | T/C (endpoint: mean survival time, dose: 25.0 mg/kg/injection, schedule: Q04DX002 (ip), vehicle: saline): 93 % of control and 97 % of control | T/C (endpoint: mean survival time, dose: 50.0 mg/kg/injection, schedule: Q01DX009 (ip), vehicle: saline): 95 % of control and 97 % of control | T/C (endpoint: mean survival time, dose: 50.0 mg/kg/injection, schedule: Q04DX002 (ip), vehicle: saline): 96 % of control and 101 % of control | T/C (endpoint: mean survival time, dose: 50.0 mg/kg/injection, schedule: Q04DX003 (ip), vehicle: saline): 98 % of control | T/C (endpoint: mean survival time, dose: 100.0 mg/kg/injection, schedule: Q01DX001 (ip), vehicle: saline): 101 % of control | T/C (endpoint: mean survival time, dose: 100.0 mg/kg/injection, schedule: Q01DX009 (ip), vehicle: saline): 100 % of control [middle of 4 runs] | T/C (endpoint: mean survival time, dose: 100.0 mg/kg/injection, schedule: Q04DX002 (ip), vehicle: saline): 93 % of control and 94 % of control | T/C (endpoint: mean survival time, dose: 100.0 mg/kg/injection, schedule: Q04DX003 (ip), vehicle: saline): 95 % of control | T/C (endpoint: mean survival time, dose: 200.0 mg/kg/injection, schedule: Q01DX001 (ip), vehicle: saline): 102 % of control | T/C (endpoint: mean survival time, dose: 200.0 mg/kg/injection, schedule: Q01DX009 (ip), vehicle: saline): 95 % of control and 102 % of control | T/C (endpoint: mean survival time, dose: 200.0 mg/kg/injection, schedule: Q04DX002 (ip), vehicle: saline): 96 % of control and 105 % of control | T/C (endpoint: mean survival time, dose: 200.0 mg/kg/injection, schedule: Q04DX003 (ip), vehicle: saline): 93 % of control | T/C (endpoint: mean survival time, dose: 400.0 mg/kg/injection, schedule: Q01DX001 (ip), vehicle: saline): 104 % of control | T/C (endpoint: mean survival time, dose: 400.0 mg/kg/injection, schedule: Q04DX002 (ip), vehicle: saline): 98 % of control and 110 % of control

CN(C)C1CCC(/C=C(\C#N)C2CCC([N+](=O)[O-])CC2)CC1 (stereo not given)
T/C (endpoint: mean survival time, dose: 25.0 mg/kg/injection, schedule: Q04DX002 (ip), vehicle: Klucel (hydroxypropylcellulose) (HPC)): 109 % of control | T/C (endpoint: mean survival time, dose: 50.0 mg/kg/injection, schedule: Q01DX009 (ip), vehicle: Klucel (hydroxypropylcellulose) (HPC)): 106 % of control | T/C (endpoint: mean survival time, dose: 50.0 mg/kg/injection, schedule: Q04DX002 (ip), vehicle: Klucel (hydroxypropylcellulose) (HPC)): 95 % of control | T/C (endpoint: mean survival time, dose: 100.0 mg/kg/injection, schedule: Q01DX009 (ip), vehicle: Klucel (hydroxypropylcellulose) (HPC)): 106 % of control | T/C (endpoint: mean survival time, dose: 100.0 mg/kg/injection, schedule: Q04DX002 (ip), vehicle: Klucel (hydroxypropylcellulose) (HPC)): 95 % of control | T/C (endpoint: mean survival time, dose: 200.0 mg/kg/injection, schedule: Q01DX009 (ip), vehicle: Klucel (hydroxypropylcellulose) (HPC)): 102 % of control | T/C (endpoint: mean survival time, dose: 200.0 mg/kg/injection, schedule: Q04DX002 (ip), vehicle: Klucel (hydroxypropylcellulose) (HPC)): 95 % of control and 100 % of control | T/C (endpoint: mean survival time, dose: 400.0 mg/kg/injection, schedule: Q04DX002 (ip), vehicle: Klucel (hydroxypropylcellulose) (HPC)): 103 % of control

O=Cc1[nH]c(=S)[nH]c(=O)c1Cc1c(Cl)cccc1Cl
T/C (endpoint: mean survival time, dose: 100.0 mg/kg/injection, schedule: Q01DX001 (ip), vehicle: saline with Tween-80): 101 % of control | T/C (endpoint: mean survival time, dose: 200.0 mg/kg/injection, schedule: Q01DX001 (ip), vehicle: saline with Tween-80): 101 % of control | T/C (endpoint: mean survival time, dose: 400.0 mg/kg/injection, schedule: Q01DX001 (ip), vehicle: saline with Tween-80): 106 % of control
